A short description of data set [1]: In vivo inhibition of caspase like 20S proteasome. It is filed as organism-based.
Data set [2] is described as follows: Inhibition of caspase like 20S proteasome activity in lymphoblastoid cells. The class given is cell-based.
The nature of data set [3]: Inhibition of trypsin like 20S proteasome activity in lymphoblastoid cells. It is filed as cell-based.
Data set [4] in a line: In vivo inhibition of trypsin like 20S proteasome. It is filed as organism-based.
Data set [5] in a line: In vivo inhibition of chymotrypsin like 20S proteasome. It is filed as organism-based.
Data set [6] can be described thus: Half life in human plasma after 360 mins. It is filed as ADME, cell-free.
Data set [7] in a line: Inhibition of chymotrypsin like 20S proteasome activity in lymphoblastoid cells. The class given is cell-based.

Residues, ends and D or L forms follow the SMILES beside them. *: point of attachment. Cbz = O=C(OCc1ccccc1)* Some results are limits rather than exact numbers.

With `CCOC(=O)/C=C/[C@H](CC(C)C)NC(=O)[C@H](CO)NC(=O)[C@@H](NC(=O)c1cccc(O)c1C)C(C)C`, the concentration for half-maximal inhibition (IC50) in data set [1] is over 10000 nM; in data set [2], over 10000 nM; in data set [3] it was 33 nM; in data set [4], 50 nM; in data set [5] it was over 10000 nM; in data set [7], over 10000 nM. For the same molecule, the half-life in data set [6] was over 6 h.
In the case of `CCOC(=O)/C(=C/c1ccccc1)NC(=O)[C@H](CC(C)C)NC(=O)[C@H](CO)NC(=O)[C@@H](NC(=O)c1cccc(O)c1C)C(C)C`, the IC50 in data set [1] is over 10000 nM; in data set [2], over 10000 nM; in data set [3], 79 nM; in data set [4] it was 92 nM; in data set [5], over 10000 nM; in data set [7], over 10000 nM. Besides, the half-life in data set [6] was over 6 h.
As for `CCOC(=O)/C(=C/c1ccccc1)NC(=O)[C@H](CC(C)C)NC(=O)[C@H](CC(C)C)NC(=O)[C@H](CC(C)C)NC(=O)c1cccc(O)c1C`, the IC50 in data set [1] is over 10000 nM; in data set [2], over 10000 nM; in data set [3], 1320 nM; in data set [4] it was 1820 nM; in data set [5], 1040 nM; in data set [7], 894 nM. In data set [6], this molecule displayed a half-life of over 6 h.
Regarding `CCOC(=O)/C=C/[C@H]1Cc2ccccc2CN1C(=O)[C@H](CC(C)C)NC(=O)[C@H](CC(C)C)NC(=O)c1cccc(O)c1C`, the IC50 was 2050 nM in data set [1], 1480 nM in data set [2], over 10000 nM in data set [3] and 3730 nM in data set [7]. Further, the half-life in data set [6] is over 6 h.
`CCOC(=O)/C=C/[C@H]1Cc2ccccc2CN1C(=O)[C@H](CC(C)C)NC(=O)[C@H](CO)NC(=O)[C@@H](NC(=O)c1cccc(O)c1C)C(C)C`: the figures for the IC50 in data set [2], in data set [3] and in data set [7] were 2350 nM, 7950 nM and over 10000 nM, respectively.
On to `CCOC(=O)/C=C/[C@H]1Cc2ccccc2CN1C(=O)[C@H](CC(C)C)NC(=O)[C@H](CC(C)C)NC(=O)[C@H](CC(C)C)NC(=O)c1cccc(O)c1C`, for which the IC50 in data set [1] was 1410 nM; in data set [2] it was 952 nM; in data set [3] it was over 10000 nM; in data set [7], 8450 nM. Besides, the half-life in data set [6] was over 6 h.
Regarding `CCOC(=O)/C=C/[C@@H]1Cc2ccccc2CN1C(=O)[C@H](CC(C)C)NC(=O)[C@H](CC(C)C)NC(=O)c1cccc(O)c1C`, the IC50 in data set [2] was 2140 nM; in data set [3] it was 5840 nM; in data set [7] it was 2060 nM.
In the same order, the values of `CCOC(=O)/C=C/[C@@H]1Cc2ccccc2CN1C(=O)[C@H](CO)NC(=O)[C@@H](NC(=O)c1cccc(O)c1C)C(C)C` are 3920 nM, 2790 nM and over 10000 nM.
Take `CCOC(=O)/C=C/[C@H]1Cc2ccccc2CN1C(=O)[C@H](CO)NC(=O)[C@@H](NC(=O)c1cccc(O)c1C)C(C)C`: the IC50 is 2960 nM in data set [2], 3670 nM in data set [3] and over 10000 nM in data set [7].
For the molecule `CCOC(=O)/C(=C/c1ccccc1)NC(=O)[C@H](CC(C)C)NC(=O)[C@H](CC(C)C)NC(=O)c1cccc(O)c1C`, the IC50 in data set [1] is over 10000 nM; in data set [2], over 10000 nM; in data set [3], 1760 nM; in data set [4], 2180 nM; in data set [5], 1550 nM; in data set [7] it was 1190 nM. In data set [6], this molecule gave a half-life of over 6 h.
Regarding `CCOC(=O)/C(=C/c1ccccc1)NC(=O)[C@H](CO)NC(=O)[C@@H](NC(=O)c1cccc(O)c1C)C(C)C`, the IC50 was over 10000 nM in data set [1]; over 10000 nM in data set [2]; 183 nM in data set [3]; 231 nM in data set [4]; over 10000 nM in data set [5]; over 10000 nM in data set [7]. In addition, the half-life in data set [6] is over 6 h.
Take `CCOC(=O)/C=C/[C@@H]1Cc2ccccc2CN1C(=O)[C@H](CC(C)C)NC(=O)[C@H](CC(C)C)NC(=O)[C@H](CC(C)C)NC(=O)c1cccc(O)c1C`: the IC50 in data set [2] was 1730 nM; in data set [3], over 10000 nM; in data set [7] it was 5300 nM.
In the same order, the values of `CCOC(=O)/C=C/[C@@H]1Cc2ccccc2CN1C(=O)[C@H](CC(C)C)NC(=O)[C@H](CO)NC(=O)[C@@H](NC(=O)c1cccc(O)c1C)C(C)C` are 2500 nM, over 10000 nM and over 10000 nM.
In turn, `CC[C@H](C)[C@H](NC(=O)[C@H]([C@@H](C)CC)N(C)C(C)=O)C(=O)N[C@H](C(=O)N[C@@H](CC(C)C)C(=O)[C@@]1(C)CO1)[C@@H](C)O` [EPOXOMYCIN] returned an IC50 in data set [7] of 5 nM.
On to `CC(C)C[C@@H](C=O)NC(=O)[C@H](CC(C)C)NC(=O)[C@H](CC(C)C)NC(=O)OCc1ccccc1` [MG-132] (Cbz-Leu-Leu-Leu-aldehyde), for which the IC50 is over 10000 nM in data set [2], 1080 nM in data set [3] and 2 nM in data set [7].

The values are drawn from ChEMBL document CHEMBL1156699, “C-terminal constrained phenylalanine as a pharmacophoric unit in peptide-based proteasome inhibitors” (Eur J Med Chem, 2008).
